Literature values as cited in patent US20110060040A1, “USES OF ACYLOXYALKYL CARBAMATE PRODRUGS OF TRANEXAMIC ACID” (XenoPort, Inc., priority 2009, published 2011).

What was measured:
[1] = human patients, prodrug given orally
[2] = patients undergoing total knee arthroplasty
[3] = cardiopulmonary bypass surgery, prophylactic administration

Row | SMILES | oral bioavailability of tranexamic acid [1] | excretion (in vivo) | fraction of administered tranexamic acid metabolized (in vivo) | volume of distribution (in vivo) | oral bioavailability (oral) | reduction of total blood loss [2] | reduction of post-operative bleeding [3]
1 | CCOC(=O)OC(C)OC(=O)[C@H]1CC[C@H](CN)CC1 (relative stereo) [Kabi 2161, 1-(ethoxycarbonyl)oxyethyl trans-4-(aminomethyl)-cyclohexanecarboxylate] | markedly improved |  |  |  |  |  | 
2 | NC[C@H]1CC[C@H](C(=O)O)CC1 [tranexamic acid, trans-4-(aminomethyl)-cyclohexanecarboxylic acid] |  | most is excreted unchanged by the kidney | Only a small fraction | 9 to 12 L | ca. 30% | up to 50% | 30-40%
